Activity change, negative = cytotoxicity data for 45 compounds are collected here from PubChem BioAssay AID687005 (Broad Institute, 2013).

Records with an inconclusive call do not appear. Activity calls are given as the source filed them.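 The calls were made as follows: active = Compounds that reduce signal, with fitted half-maximal dose at or under twice the top valid tested dose; inconclusive = Poor fit, or flat curve losing 30 to 70% of signal; inactive = Potency past limit, flat within 30%, or opposite direction.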

One assay in a line: viability loss in HEK293T cells – cell-based, ATP luminescence, cherry-pick samples, cytotoxicity control, dose response (AID 687005). To be noted: HEK293T viability, ATP luminescence (CellTiter-Glo), 48 h; at 18 µM (top of the series). For orientation: Cellular ATP, detected with luciferase, serves as a proxy for viable cell number.
For `CN1CCN(C(=O)CN(c2ccc(I)cc2)S(=O)(=O)c2ccccc2)CC1`, the activity change, negative = cytotoxicity is 45.2% (inactive).

The assay is the same for the next values; noted with them: HEK293T viability, ATP luminescence (CellTiter-Glo), 48 h; at 21 µM (top of the series).
As to `Cc1ccc(S(=O)(=O)N[C@@H]2CCCN(Cc3cccc(OCCO)c3)C2)cc1`, the activity change, negative = cytotoxicity was 0.167% (inactive).

Still in this assay, the particulars now being: HEK293T viability, ATP luminescence (CellTiter-Glo), 48 h; at 23.5 µM (top of the series).
In the case of `CC(C)NC(=O)Nc1ccc2c(c1)CC(=O)N([C@@H](C)CO)C[C@H](C)[C@H](CN(C)Cc1ccc3c(c1)OCO3)O2`, the activity change, negative = cytotoxicity was 26.2% (inactive).

Turning to `CO[C@H]1CN(C)C(=O)c2cc(NC(C)=O)ccc2OC[C@H](C)N(Cc2cccc(F)c2)C[C@@H]1C`, the activity change, negative = cytotoxicity was -25.3% (inactive).

For `COc1ccc(CN(C)C[C@@H]2Oc3ccc(NS(C)(=O)=O)cc3CC(=O)N([C@H](C)CO)C[C@H]2C)cc1`, the activity change, negative = cytotoxicity is 1.11% (inactive).

With `COC(=O)C1=C(C)N(Cc2ccccc2)C(=S)N[C@H]1c1ccc(Br)cc1`, the activity change, negative = cytotoxicity is 13.4% (inactive).

As to `CNC(=O)C[C@@H]1CC[C@@H]2[C@H](COc3ccc(NC(=O)c4cc(C)on4)cc3C(=O)N2C)O1`, the activity change, negative = cytotoxicity is 26.8% (inactive).

In the case of `C[C@@H]1CN([C@H](C)CO)C(=O)c2cc(NS(=O)(=O)c3ccccc3)ccc2O[C@H]1CN(C)C(=O)NC1CCCCC1`, the activity change, negative = cytotoxicity is -10.5% (inactive).

Still in this assay, the particulars now being: HEK293T viability, ATP luminescence (CellTiter-Glo), 48 h; at 26 µM (top of the series).
Consider `CN1C(=O)N[C@@H]2c3ccccc3O[C@@]1(C)[C@@H]2COC(=O)c1ccccc1`, for which the activity change, negative = cytotoxicity is -8.64% (inactive).

For `CO[C@@H]1CN(C)C(=O)c2cc(NS(=O)(=O)c3ccc(C)cc3)ccc2OC[C@@H](C)N(C)C[C@@H]1C`, the activity change, negative = cytotoxicity was 5.91% (inactive).

`CNC(=O)C[C@H]1CC[C@H]2[C@H](COc3ccc(NC(=O)Nc4ccccc4)cc3C(=O)N2C)O1`: the activity change, negative = cytotoxicity is -20.5% (inactive).

In the case of `CO[C@H]1CN(C)C(=O)c2cc(NC(=O)c3ccc4c(c3)OCO4)ccc2OC[C@@H](C)N(CC2CC2)C[C@H]1C`, the activity change, negative = cytotoxicity is -5.62% (inactive).

Consider `Cc1ccc(OCCn2c(=S)[nH]c3ccccc32)c(C(C)C)c1`, for which the activity change, negative = cytotoxicity was -49.7% (inactive).

For `C[C@H](O)C#Cc1ccc([C@H]2[C@H](CO)N3CCCCN(CC4CCOCC4)C[C@@H]23)cc1`, the activity change, negative = cytotoxicity was 21.6% (inactive).

Regarding `Cc1noc(C)c1NC(=O)Nc1ccc2c(c1)C(=O)N([C@@H](C)CO)C[C@H](C)[C@H](CN(C)S(=O)(=O)c1ccc(Cl)cc1)O2`, the activity change, negative = cytotoxicity was 8.28% (inactive).

With `CCCNC(=O)N1C[C@H](O)COC[C@H]2O[C@H](CC(=O)N3CCN(C)CC3)CC[C@@H]21`, the activity change, negative = cytotoxicity was -14.1% (inactive).

Regarding `COc1cccc(-c2cn(CC[C@@H]3CC[C@@H](NC(C)=O)[C@H](CO)O3)nn2)c1`, the activity change, negative = cytotoxicity is 53.3% (inactive).

For the compound `Cc1cccc(NC(=S)NN(Cc2ccccc2)c2ccccc2)c1C`, the activity change, negative = cytotoxicity is 25.3% (inactive).

With `CCC(=O)N(C)C[C@H]1Oc2cc(C#CC(C)(C)O)ccc2S(=O)(=O)N([C@@H](C)CO)C[C@@H]1C`, the activity change, negative = cytotoxicity is 8.91% (inactive).

With `O=C(NCc1ccc(F)cc1)C1C2C=CC3(CN(Cc4cccnc4)C(=O)C13)O2` (stereo not given), the activity change, negative = cytotoxicity is 9.79% (inactive).

As to `CNC[C@@H]1OCCCC[C@H](C)Oc2ccc(NC(=O)c3ccccc3)cc2C(=O)N([C@@H](C)CO)C[C@@H]1C`, the activity change, negative = cytotoxicity is 6.33% (inactive).

On to `O=C1CCC(C(=O)Nc2ccc(Cl)cc2)N1` (stereo not given), for which the activity change, negative = cytotoxicity was 11% (inactive).

On to `Cc1cccc(C)c1NC(=S)NN(Cc1ccccc1)c1ccccc1`, for which the activity change, negative = cytotoxicity was 15.7% (inactive).

With `CC(C)NC(=O)N(C)C[C@@H]1Oc2c(NC(=O)C3CCCCC3)cccc2C(=O)N([C@@H](C)CO)C[C@@H]1C`, the activity change, negative = cytotoxicity was 24.4% (inactive).

As for `C[C@@H]1CN([C@@H](C)CO)C(=O)c2cc(NC(=O)CCN3CCOCC3)ccc2O[C@@H]1CN(C)Cc1ccc(C(=O)O)cc1`, the activity change, negative = cytotoxicity is -11.9% (inactive).

As for `Cc1noc(C)c1S(=O)(=O)Nc1ccc2c(c1)CC(=O)N([C@H](C)CO)C[C@H](C)[C@@H](CN(C)S(=O)(=O)c1cn(C)cn1)O2`, the activity change, negative = cytotoxicity is -28.7% (inactive).

For `COc1cccc(S(=O)(=O)Nc2ccc3c(c2)[C@@H]2C[C@H](CC(=O)NC4CCCCC4)O[C@H](CO)[C@@H]2O3)c1`, the activity change, negative = cytotoxicity was -27.9% (inactive).

As for `COc1cccc(S(=O)(=O)N(C)C[C@H]2OCc3cnnn3CCCC(=O)N([C@H](C)CO)C[C@H]2C)c1`, the activity change, negative = cytotoxicity is 38.2% (inactive).

Take `COc1ccc(NC(=O)Nc2ccc3c(c2)C(=O)N([C@H](C)CO)C[C@@H](C)[C@@H](CN(C)C(=O)CCC(F)(F)F)OCCCC[C@H](C)O3)cc1`: the activity change, negative = cytotoxicity is -34.4% (inactive).

With `CCCNC(=O)N(C)C[C@H]1Oc2ncc(C#CC3CCCCC3)cc2C(=O)N([C@@H](C)CO)C[C@@H]1C`, the activity change, negative = cytotoxicity was 9.03% (inactive).

`Cc1ccccc1OCC(=O)NCc1ccccc1`: the activity change, negative = cytotoxicity was 2.49% (inactive).

Turning to `CC(NC(=O)COc1ccc([N+](=O)[O-])cc1)c1ccccc1` (stereo not given), the activity change, negative = cytotoxicity was 18.2% (inactive).

With `C[C@@H]1CN([C@H](C)CO)C(=O)c2cc(/C=C/c3ccccc3)cnc2O[C@@H]1CN(C)S(C)(=O)=O`, the activity change, negative = cytotoxicity was -0.658% (inactive).

For the compound `C[C@@H]1CN([C@H](C)CO)S(=O)(=O)c2ccc(C#C[C@@H](C)O)cc2O[C@@H]1CN(C)Cc1ccncc1`, the activity change, negative = cytotoxicity is -20.8% (inactive).

Regarding `CN(C)C(=O)c1ccc(-c2ccc([C@H]3[C@H](CO)N4CCCCN(CCC(F)(F)F)C[C@@H]34)cc2)cc1`, the activity change, negative = cytotoxicity is -23.6% (inactive).

For the compound `CNC[C@H]1Oc2ncc(C#CCC(C)C)cc2C(=O)N([C@H](C)CO)C[C@H]1C`, the activity change, negative = cytotoxicity was 29% (inactive).

Consider `O=C(C[C@@H]1CC[C@H]2[C@@H](COC[C@@H](O)CN2C(=O)Nc2ccc(Cl)cc2)O1)NCCc1ccncc1`, for which the activity change, negative = cytotoxicity is -9.46% (inactive).

Regarding `CO[C@H]1CN(C)C(=O)c2cc(NC(=O)c3ccccc3F)ccc2OC[C@H](C)N(C(C)=O)C[C@H]1C`, the activity change, negative = cytotoxicity is -16.7% (inactive).

`COC(=O)C1=C(C)N(Cc2ccc(Cl)cc2)C(=S)NC1c1cccc(OC)c1` (stereo not given): the activity change, negative = cytotoxicity was -34.3% (inactive).

On to `CCCC(=O)Nc1ccc2c(c1)OC[C@@H](C)N(Cc1ccccn1)C[C@@H](C)[C@H](OC)CN(C)C2=O`, for which the activity change, negative = cytotoxicity was 25.3% (inactive).

In the case of `CCNC(=O)CN(c1ccc(Cl)cc1)S(=O)(=O)c1ccccc1`, the activity change, negative = cytotoxicity was 4.12% (inactive).

`CC(=O)NC[C@@H]1[C@@H](c2ccc(C3=CCCC3)cc2)[C@@H](CO)N1C(=O)NC(C)C`: the activity change, negative = cytotoxicity is 6.26% (inactive).

Regarding `C[C@@H]1CCCCO[C@H](CN(C)Cc2ccncc2)[C@@H](C)CN([C@@H](C)CO)C(=O)c2cc(NC(=O)Nc3ccccc3)ccc2O1`, the activity change, negative = cytotoxicity is -7.38% (inactive).

For the compound `COc1ccc(CN(C)C[C@@H]2OCCCC[C@@H](C)Oc3ccc(NC(=O)c4ccccc4)cc3C(=O)N([C@H](C)CO)C[C@@H]2C)cc1`, the activity change, negative = cytotoxicity is -11.1% (inactive).

Staying with this assay, now noted: HEK293T viability, ATP luminescence (CellTiter-Glo), 48 h; at 30 µM (top of the series).
Consider `COCCN1C(=S)N[C@@H](c2ccccc2)C(C(=O)OC)=C1C`, for which the activity change, negative = cytotoxicity is 28.9% (inactive).
